In US10745382B2 (BRISTOL-MYERS SQUIBB COMPANY, priority 2015, dated 2020):
Read-outs that look alike come from different tables or passages of the source.

Target: T1, PD-1/PD-L1 (Homo sapiens, UniProt Q9NZQ7)
T1 construct: made in house; host or cells: HEK293T
Assay: PD-1/PD-L1 Homogenous Time-Resolved Fluorescence (HTRF) binding assay
Conditions: PD-L1-His 10 nM, PD-1-Ig 20 nM, read-out: Range or IC50
How it was run: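 Additional pairs run were PD-1-Ig with PD-L2-His (20 & 5 nM) and CD80-His with PD-L1-Ig (100 & 10 nM), all human proteins. Buffer: dPBS plus 0.1% BSA, 0.05% Tween-20; time-resolved FRET read-out via 1 nM Eu-cryptate anti-Ig and 20 nM APC anti-His, final concentrations.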

T1 sequence (Q9NZQ7 with tags, fused parts or gaps): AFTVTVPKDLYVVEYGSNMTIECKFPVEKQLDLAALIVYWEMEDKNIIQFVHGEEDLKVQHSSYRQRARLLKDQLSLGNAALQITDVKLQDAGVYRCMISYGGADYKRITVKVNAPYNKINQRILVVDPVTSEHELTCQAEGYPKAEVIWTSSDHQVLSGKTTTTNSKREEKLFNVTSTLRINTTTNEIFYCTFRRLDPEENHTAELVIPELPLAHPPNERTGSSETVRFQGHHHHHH

SMILES	IC50 (value given as range class) [nM]	IC50 (numeric IC50) [nM]
CCOC(=O)C1(O)CCN(CCCOc2cccc(-c3cccc(COc4cc(OCc5cncc(C#N)c5)c(CN[C@](C)(CO)C(=O)O)cc4Cl)c3C)c2Cl)CC1 [Example 1098, (R)-2-((5-chloro-4-((2′-chloro-3′-(3-(4-(ethoxycarbonyl)-4-hydroxypiperidin-1-yl)propoxy)-2-methyl-[1,1′-biphenyl]-3-yl)methoxy)-2-((5-cyanopyridin-3-yl)methoxy)benzyl)amino)-3-hydroxy-2-methylpropanoic Acid]	0.21 to 10	
Cc1c(COc2cc(OCc3cncc(C#N)c3)c(CN3CCC[C@H]3C(=O)O)cc2Cl)cccc1-c1cccc(C(=O)N(C)C)c1C [Example 4031, (5-chloro-2-((5-cyanopyridin-3-yl)methoxy)-4-((3′-(dimethylcarbamoyl)-2,2′-dimethyl-[1,1′-biphenyl]-3-yl)methoxy)benzyl)-L-proline]	2010 to 10000	
CC(=O)NC1CCN(CCCOc2cccc(-c3cccc(COc4cc(O)c(CO)cc4Cl)c3C)c2Cl)C1 (stereo not drawn) [Example 2020, N-(1-(3-((2-chloro-3′-((2-chloro-5-hydroxy-4-(hydroxymethyl)phenoxy)methyl)-2′-methyl-[1,1′-biphenyl]-3-yl)oxy)propyl)pyrrolidin-3-yl)acetamide]		63
Cc1c(COc2cc(OCc3cncc(C#N)c3)c(CO)cc2Cl)cccc1-c1cccc(OCCCN2CCCCC2)c1Cl [Example 2018, 5-((4-chloro-5-((2′-chloro-2-methyl-3′-(3-(piperidin-1-yl)propoxy)-[1,1′-biphenyl]-3-yl)methoxy)-2-(hydroxymethyl)phenoxy)methyl)nicotinonitrile]	0.21 to 10	
Cc1c(COc2cc(OCc3cncc(S(C)(=O)=O)c3)c(CN3CCCC[C@H]3C(=O)O)cc2Cl)cccc1-c1cccc(OCCCN2CC[C@@H](O)C2)c1Cl [Example 1513, (S)-1-(5-chloro-4-((2′-chloro-3′-(3-((R)-3-hydroxypyrrolidin-1-yl)propoxy)-2-methyl-[1,1′-biphenyl]-3-yl)methoxy)-2-((5-(methylsulfonyl)pyridin-3-yl)methoxy)benzyl)piperidine-2-carboxylic acid]	10 to 100	

Results, then the compound that gave them:

IC50 (value given as range class) [nM]	IC50 (numeric IC50) [nM]	SMILES
0.21 to 10		Cc1ccc(COc2cc(OCc3cccc(-c4cccc(OCCCN5CC[C@@H](O)C5)c4C)c3C)c(Cl)cc2CNC(CO)CO)cc1C [Example 4505, (R)-2-((5-chloro-2-((3,4-dimethylbenzyl)oxy)-4-((3′-(3-(3-hydroxypyrrolidin-1-yl)propoxy)-2,2′-dimethyl-[1,1′-biphenyl]-3-yl)methoxy)benzyl)amino)propane-1,3-diol]
0.21 to 10		Cc1c(COc2cc(OCc3cncc(C#N)c3)c(CN(C)C(C)(CO)CO)c(C)c2Cl)cccc1-c1cccc(OCCCN2CC[C@@H](O)C2)c1C [Example 4107, (R)-5-((4-chloro-2-(((1,3-dihydroxy-2-methylpropan-2-yl)(methyl)amino)methyl)-5-((3′-(3-(3-hydroxypyrrolidin-1-yl)propoxy)-2,2′-dimethyl-[1,1′-biphenyl]-3-yl)methoxy)-3-methylphenoxy)methyl)nicotinonitrile]
0.21 to 10		Cc1cc(OCc2cccc(-c3cccc(OCCCN4CC[C@@H](O)C4)c3C)c2C)cc(OCc2cncc(C#N)c2)c1CNC(CO)(CO)CO [Example 4089, (R)-5-((2-(((1,3-dihydroxy-2-(hydroxymethyl)propan-2-yl)amino)methyl)-5-((3′-(3-(3-hydroxypyrrolidin-1-yl)propoxy)-2,2′-dimethyl-[1,1′-biphenyl]-3-yl)methoxy)-3-methylphenoxy)methyl)nicotinonitrile]
0.21 to 10		Cc1c(COc2cc(OCc3cncc(C#N)c3)c(CN(CC3CC3)C(CO)CO)cc2Cl)cccc1-c1cccc(OCCCN2CC[C@@H](O)C2)c1Cl [Example 2113, (R)-5-((4-chloro-5-((2′-chloro-3′-(3-(3-hydroxypyrrolidin-1-yl)propoxy)-2-methyl-[1,1′-biphenyl]-3-yl)methoxy)-2-(((cyclopropylmethyl)(1,3-dihydroxypropan-2-yl)amino)methyl)phenoxy)methyl)nicotinonitrile]
